From ChEMBL document CHEMBL3421584, “Allosteric modulators: an emerging concept in drug discovery” (ACS Med Chem Lett, 2015) come the findings set out here.

The assay deals with Metabotropic glutamate receptor 2 (Homo sapiens) (UniProt Q14416). As to the kind of experiment: Negative allosteric modulation of human mGluR2 receptor expressed in CHO cell membranes assessed as inhibition of glutamate responses after 30 mins by [35S]GTPgammaS binding assay. The assay is classed as functional.
Metabotropic glutamate receptor 2 (Homo sapiens), sequence (Q14416 19-872 limits assumed): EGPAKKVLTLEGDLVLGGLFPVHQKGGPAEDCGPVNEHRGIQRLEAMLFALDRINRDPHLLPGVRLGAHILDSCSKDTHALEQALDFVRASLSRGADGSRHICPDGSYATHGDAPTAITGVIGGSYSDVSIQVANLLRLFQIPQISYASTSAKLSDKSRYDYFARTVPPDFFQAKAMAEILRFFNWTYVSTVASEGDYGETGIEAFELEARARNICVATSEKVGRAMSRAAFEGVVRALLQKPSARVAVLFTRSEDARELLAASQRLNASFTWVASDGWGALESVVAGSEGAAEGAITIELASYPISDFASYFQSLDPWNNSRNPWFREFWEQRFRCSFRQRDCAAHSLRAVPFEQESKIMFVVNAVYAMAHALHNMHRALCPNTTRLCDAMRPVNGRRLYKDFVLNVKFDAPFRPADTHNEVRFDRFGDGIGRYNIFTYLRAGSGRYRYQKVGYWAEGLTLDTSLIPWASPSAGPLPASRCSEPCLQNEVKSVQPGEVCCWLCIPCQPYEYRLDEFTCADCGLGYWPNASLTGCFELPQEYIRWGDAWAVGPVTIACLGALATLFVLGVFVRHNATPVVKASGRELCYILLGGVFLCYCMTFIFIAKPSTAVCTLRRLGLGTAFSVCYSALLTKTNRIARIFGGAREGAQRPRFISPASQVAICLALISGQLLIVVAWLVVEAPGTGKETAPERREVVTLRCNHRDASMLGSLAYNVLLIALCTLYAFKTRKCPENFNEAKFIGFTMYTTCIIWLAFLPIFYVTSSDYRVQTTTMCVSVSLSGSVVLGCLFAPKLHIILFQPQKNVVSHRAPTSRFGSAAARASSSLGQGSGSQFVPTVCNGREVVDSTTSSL
For the compound `Cc1cc(-c2cnn3c2C(=O)N(c2ccc(C(F)(F)F)cc2)C[C@@H]3C)ccn1`, the Emax came to 106%.

With `CCC1CN(c2ccc(C(F)(F)F)cc2)C(=O)c2c(-c3ccnc(C)c3)cnn21` (centres undefined), the Emax was 106%. Consider `Cc1cc(-c2cnn3c2C(=O)N(c2ccc(C(C)O)cc2)C[C@@H]3C)ccn1` (some centres undefined), for which the maximal effect (Emax) was 49%. Under `C[C@H]1CN(c2ccc(C(F)(F)F)c(Cl)c2)C(=O)c2c(-c3ccnc(C#N)c3)cnn21` stands 109%.
